Test results published in publication PMC7242711, “An integrated approach to unravel a crucial structural property required for the function of the insect steroidogenic Halloween protein Noppera-bo” (The Journal of Biological Chemistry, 2020).

Tests used:
[1] = target: T1, AgNobo (Anopheles gambiae, UniProt Q8WQJ5); test: fluorogenic GSH conjugation assay with […],4-DNADCF; type: biochemical
T1 construct: gene GSTe8; full-length CDS, pCold-III, N-terminal MNHKV kept; E. coli BL21(DE3)
T1 sequence (Q8WQJ5 1-217): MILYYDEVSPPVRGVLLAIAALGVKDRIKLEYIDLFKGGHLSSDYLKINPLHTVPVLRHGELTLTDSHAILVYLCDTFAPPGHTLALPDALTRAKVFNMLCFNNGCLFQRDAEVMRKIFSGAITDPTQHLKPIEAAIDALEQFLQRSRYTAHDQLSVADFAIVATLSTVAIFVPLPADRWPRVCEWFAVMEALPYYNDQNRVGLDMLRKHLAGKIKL

[2] = target: T2, DmNobo (Drosophila melanogaster, UniProt Q7JYX0); test: fluorogenic GSH conjugation assay with […],4-DNADCF; type: biochemical; settings: 1 mM GSH, 1 μM 3,4-DNADCF (final, after equal-volume mixing), 100 mM sodium phosphate pH 6.5, 0.01% Tween 20; H-site
T2 construct: gene GstE14; full-length CDS, pCold-III, N-terminal translation enhancing element MNHKV kept; E. coli BL21(DE3); homodimer
T2 sequence (Q7JYX0 whole entry): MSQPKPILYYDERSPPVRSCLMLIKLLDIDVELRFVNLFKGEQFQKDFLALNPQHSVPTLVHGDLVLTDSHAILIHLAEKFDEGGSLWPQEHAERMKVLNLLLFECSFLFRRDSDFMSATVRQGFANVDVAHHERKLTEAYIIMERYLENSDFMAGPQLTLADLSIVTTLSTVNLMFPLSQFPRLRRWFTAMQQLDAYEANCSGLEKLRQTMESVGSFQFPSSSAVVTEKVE

[3] = target: T3, DmGSTE6 (Drosophila melanogaster, UniProt A1ZB71); test: fluorogenic GSH conjugation assay with […],4-DNADCF; type: biochemical
T3 construct: gene GstE6; full-length CDS, pCold-III, N-terminal MNHKV kept; E. coli BL21(DE3)
T3 sequence (A1ZB71 1-222): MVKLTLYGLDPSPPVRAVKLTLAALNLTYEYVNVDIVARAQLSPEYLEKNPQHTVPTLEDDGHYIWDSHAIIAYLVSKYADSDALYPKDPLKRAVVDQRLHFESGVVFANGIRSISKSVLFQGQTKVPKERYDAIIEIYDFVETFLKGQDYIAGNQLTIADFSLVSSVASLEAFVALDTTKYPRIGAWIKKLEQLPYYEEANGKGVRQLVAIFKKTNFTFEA

[4] = target: T4, DmNobo (Drosophila melanogaster, UniProt Q7JYX0, D113A); test: fluorogenic GSH conjugation assay with […],4-DNADCF; type: biochemical
T4 construct: gene GstE14; full-length CDS, pCold-III, N-terminal translation enhancing element MNHKV kept; E. coli BL21(DE3); homodimer
T4 sequence (Q7JYX0 whole entry D113A): as the sequence (Q7JYX0 whole entry) above, with D113A counted along it

[5] = target: T2, DmNobo; test: SPR, Biacore T200, protein immobilised on CM5 chip by amine coupling; type: binding
From the text: SPR, Biacore T200, protein immobilised on CM5 chip by amine coupling on DmNobo | Kd values between DmNobo WT and EST in the presence or absence of GSH were […]

[6] = target: T5, DmGSTE9 (Drosophila melanogaster, UniProt A1ZB74); test: fluorogenic GSH conjugation assay with […],4-DNADCF; type: biochemical
T5 construct: gene GstE9; full-length CDS, pCold-III, N-terminal MNHKV kept; E. coli BL21(DE3)
T5 sequence (A1ZB74 1-221): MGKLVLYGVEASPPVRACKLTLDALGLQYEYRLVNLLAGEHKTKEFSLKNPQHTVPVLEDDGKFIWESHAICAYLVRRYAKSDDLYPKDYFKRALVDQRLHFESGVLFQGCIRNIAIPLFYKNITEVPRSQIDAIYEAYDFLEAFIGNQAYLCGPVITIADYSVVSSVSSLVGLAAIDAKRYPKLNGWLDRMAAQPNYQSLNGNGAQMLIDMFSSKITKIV

[7] = target: T6, AgNobo (Anopheles gambiae, UniProt Q8WQJ5, D111A); test: fluorogenic GSH conjugation assay with […],4-DNADCF; type: biochemical
T6 construct: gene GSTe8; full-length CDS, pCold-III, N-terminal MNHKV kept; E. coli BL21(DE3)
T6 sequence (Q8WQJ5 1-217 D111A): T1 sequence (Q8WQJ5 1-217)

Question: Which IC50 [1] does the source give for C[C@]12CC[C@@H]3c4ccc(O)cc4CC[C@H]3[C@@H]1CC[C@@H]2O [17β-estradiol] here?
Answer: 2070 nM

Question: And the IC50 [2]?
Answer: 2330 nM

Question: And the IC50 [3]?
Answer: > 25000 nM

Question: And the IC50 [4]?
Answer: > 25000 nM

Question: What about the Kd [5] of the same molecule?
Answer: 480 ± 100 nM

Question: What about the IC50 [6] of the same molecule?
Answer: > 25000 nM

Question: What about the IC50 [7] of the same molecule?
Answer: > 25000 nM
